The values below come from patent publication US20100292214A1, “Compounds with Antiparasitic Activity, Applications thereof to the Treatment of Infectious Diseases Caused by Apicomplexans” (commissariat a l'Energie Atomique, priority 2007, published 2010).

Experiment [1] has as its system asynchronous 3D7 chloroquine-sensitive P. falciparum infected red blood cells. Put plainly: Labeled hypoxanthine incorporation assay (in vitro anti-malarial activity). The experiment is classed as cell-based. The settings on record: Plasmodium falciparum, 3D7, Erythrocyte, read-out: IC50 assessed on Plasmodium Falciparum.
Experiment [2] deals with Toxoplasma gondii RH-β1 strain. Put plainly: microbe, parasite or virus in culture. To be noted: Toxoplasma gondii, read-out: IC50 assessed on Toxoplama Gondii. The experiment is classed as cell-based.
The mark [3] stands for this setting: 3D7 chloroquine-sensitive strain, infected RBC, 48 h contact, [3H]-hypoxanthine incorporation, two independent experiments in duplicates.

Counter-ions that a name gives are not always drawn. Like-named read-outs stand apart in the source and are kept apart here.

As to `C[C@@H](COC(=O)N1CCC(n2c(=O)n(CCNC(=O)OC(C)(C)C)c3ccccc32)CC1)N(Cc1ccccc1)Cc1ccccc1` [Compound 73, (S)-2-(dibenzylamino)propyl 4-(3-(2-tert-butyloxycarbonylaminoethyl)-2-oxo-2,3-dihydro-1H-benzo[d]imidazol-1-yl)piperidine-1-carboxylate], the IC50 (in general, the concentration needed to halve the response being measured) worked out at 1420 nM in experiment [1] (setting [3]) and 3000 nM in experiment [2].

For the molecule `C[C@@H](COC(=O)N1CCC(N(c2ccccc2)S(=O)(=O)c2ccccc2)CC1)N(Cc1ccccc1)Cc1ccccc1` [Compound 90, (S)-2-(dibenzylamino)propyl 4-(N-phenylphenylsulfonamido)piperidine-1-carboxylate], the IC50 in experiment [1] (setting [3]) was found to be 525 nM; in experiment [2] it was 1750 nM.

For the molecule `C[C@@H](COC(=O)N1CCC(n2c(=O)n(Cc3ccccc3)c3ccccc32)CC1)N(Cc1ccccc1)Cc1ccccc1` [Compound 71, (S)-2-(dibenzylamino)propyl 4-(1-benzyl-1,2-dihydro-2-oxobenzo[d]imidazol-3-yl)piperidine-1-carboxylate], the IC50 in experiment [1] (setting [3]) turned out to be 770 nM; in experiment [2], 1760 nM.

For the molecule `C[C@@H](COC(=O)N1CCC(c2c[nH]c3ccccc23)CC1)N(Cc1ccccc1)Cc1ccccc1` [Compound 44, (S)-2-(dibenzylamino)propyl 4-(1H-indol-3-yl)piperidine-1-carboxylate], the 50% inhibitory concentration (IC50) worked out at 5210 nM in experiment [1] (setting [3]) and 1850 nM in experiment [2].

For the molecule `Cn1c(=O)n(C2CCN(C(=O)OC[C@H](Cc3ccccc3)N(Cc3ccccc3)Cc3ccccc3)CC2)c2ccccc21` [Compound 68, (S)-2-(dibenzylamino)-3-phenylpropyl 4-(1,2-dihydro-1-methyl-2-oxobenzo[d]imidazol-3-yl)piperidine-1-carboxylate], the IC50 in experiment [1] (setting [3]) is 452 nM; in experiment [2], 800 nM.

Turning to `O=C(OCCCN(Cc1ccccc1)Cc1ccccc1)N1CCC(n2c(=O)[nH]c3ccccc32)CC1` [Compound 29, 3-(dibenzylamino)propyl 4-(1,2-dihydro-2-oxobenzo[d]imidazol-3-yl)piperidine-1-carboxylate], the concentration for half-maximal inhibition (IC50) in experiment [1] (setting [3]) stood at 3600 nM; in experiment [2], 2500 nM.

Take `C[C@@H](COC(=O)N1CCC(n2cnc3ccccc32)CC1)N(Cc1ccccc1)Cc1ccccc1` [Compound 3, (S)-2-(dibenzylamino)propyl 4-(1H-benzo[d]imidazol-1-yl)piperidine-1-carboxylate]: the IC50 stood at 1810 nM in experiment [1] (setting [3]) and 8000 nM in experiment [2].

Take `C[C@@H](COC(=O)N1CCC(n2c(=O)n(S(=O)(=O)c3cccc4ccccc34)c3ccccc32)CC1)N(Cc1ccccc1)Cc1ccccc1` [Compound 61, (S)-2-(dibenzylamino)propyl 4-(3-(naphthalen-1-ylsulfonyl)-2-oxo-2,3-dihydro-1H-benzo[d]imidazol-1-yl)piperidine-1-carboxylate]: the results for the IC50 in experiment [1] (setting [3]) and in experiment [2] were 950 nM and 2300 nM, respectively.

For the molecule `C[C@@H](COC(=O)N1CCC(Nc2cccc(F)c2)CC1)N(Cc1ccccc1)Cc1ccccc1` [Compound 84, (S)-2-(dibenzylamino)propyl 4-(3-fluorophenylamino)piperidine-1-carboxylate], the figures for the 50% inhibitory concentration (IC50) in experiment [1] and in experiment [2] were 6740 nM and 5500 nM, respectively.

Turning to `O=C(OCCCN(Cc1ccccc1)Cc1ccccn1)N1CCC(n2c(=O)[nH]c3ccccc32)CC1` [Compound 135, 3-(benzyl(pyridin-2-ylmethyl)amino)propyl 4-(2-oxo-2,3-dihydro-1H-benzo[d]imidazol-1-yl)piperidine-1-carboxylate hydrochloride], the IC50 came to 3600 nM in experiment [1] (setting [3]) and 2300 nM in experiment [2].

In the case of `C[C@@H](COC(=O)N1CCC(N(c2ccccc2)S(=O)(=O)c2cccc3cccnc23)CC1)N(Cc1ccccc1)Cc1ccccc1` [Compound 160, (S)-2-(dibenzylamino)propyl 4-(N-phenylquinolin-8-ylsulfonamido)piperidine-1-carboxylate], the half-maximal inhibitory concentration (IC50) in experiment [1] (setting [3]) turned out to be 1060 nM; in experiment [2], 2700 nM.

On to `Cc1ccccc1S(=O)(=O)N(c1ccccc1)C1CCN(C(=O)OC[C@H](C)N(Cc2ccccc2)Cc2ccccc2)CC1` [Compound 167, (S)-2-(dibenzylamino)propyl 4-(N-phenyl-2-methylphenylsulfonamido)piperidine-1-carboxylate], for which the IC50 in experiment [1] (setting [3]) came out at 338 nM; in experiment [2], 3900 nM.

Regarding `C[C@@H](COC(=O)N1CCC(Nc2ccc(Cl)c(Cl)c2)CC1)N(Cc1ccccc1)Cc1ccccc1` [Compound 86, (S)-2-(dibenzylamino)propyl 4-(3,4-dichlorophenylamino)piperidine-1-carboxylate], the IC50 in experiment [1] came to 7250 nM; in experiment [2], 3750 nM.

`C[C@@H](COC(=O)N1CCC(n2c(=O)[nH]c3cc4ccccc4cc32)CC1)N(Cc1ccccc1)Cc1ccccc1` [Compound 12, (S)-2-(dibenzylamino)propyl 4-(1,2-dihydro-2-oxonaphtho[2,3-d]imidazol-3-yl)piperidine-1-carboxylate]: the half-inhibitory concentration (IC50) in experiment [1] (setting [3]) was found to be 7200 nM; in experiment [2], 750 nM.

Consider `O=C(OCCCN(Cc1ccccc1)Cc1cccc(Oc2ccccc2)c1)N1CCC(n2c(=O)[nH]c3ccccc32)CC1` [Compound 146, 3-(benzyl(3-phenoxybenzyl)amino)propyl 4-(2-oxo-2,3-dihydro-1H-benzo[d]imidazol-1-yl)piperidine-1-carboxylate hydrochloride], for which the IC50 in experiment [1] (setting [3]) came to 1960 nM; in experiment [2], 1500 nM.

Regarding `C[C@@H](COC(=O)N1CCC(n2c(=O)n(S(=O)(=O)c3ccc(C(F)(F)F)cc3)c3ccccc32)CC1)N(Cc1ccccc1)Cc1ccccc1` [Compound 58, (S)-2-(dibenzylamino)propyl 4-(2-oxo-3-(4-(trifluoromethyl)phenylsulfonyl)-2,3-dihydro-1H-benzo[d]imidazol-1-yl)piperidine-1-carboxylate], the results for the half-maximal inhibitory concentration (IC50) in experiment [1] (setting [3]) and in experiment [2] were 420 nM and 8500 nM, respectively.

Turning to `C[C@@H](COC(=O)N1CCC(n2c(=O)[nH]c3ncccc32)CC1)N(Cc1ccccc1)Cc1ccccc1` [Compound 11, (S)-2-(dibenzylamino)propyl 4-(2,3-dihydro-2-oxoimidazo[4,5-b]pyridin-1-yl)piperidine-1-carboxylate], the IC50 was 3840 nM in experiment [1] (setting [3]) and 2500 nM in experiment [2].

As for `O=C(CCCC[C@@H]1SC[C@@H]2NC(=O)N[C@@H]21)NCCn1c(=O)n(C2CCN(C(=O)OC[C@H](Cc3ccccc3)N(Cc3ccccc3)Cc3ccccc3)CC2)c2ccccc21` [Compound 76, (S)-2-(dibenzylamino)-3-phenylpropyl 4-(3-(2 aminoethyl)-2-oxo-2,3-dihydro-1H-benzo[d]imidazol-1-yl)piperidine-1-carboxylate D-biotin amid], the IC50 is 480 nM in experiment [1] (setting [3]) and 2600 nM in experiment [2].
